# Experimental data from PubChem BioAssay (NCI).
#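 Results reflect a 48-hour exposure of cells in 96-well plates to compound at five concentrations. TGI marks complete inhibition of growth.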
# Columns and labels:
# Assay in all cases: inhibition of tumour cell growth, NCI panel, 48 h
# SR leukemia = tested on: SR leukemia
# OVCAR-3 ovarian = tested on: OVCAR-3 ovarian
# UACC-257 melanoma = tested on: UACC-257 melanoma
# CAKI-1 renal = tested on: CAKI-1 renal
# SN12C renal = tested on: SN12C renal
# SNB-75 CNS = tested on: SNB-75 CNS
# MDA-MB-231 breast = tested on: MDA-MB-231 breast
# SNB-19 CNS = tested on: SNB-19 CNS
# K-562 leukemia = tested on: K-562 leukemia
# UACC-62 melanoma = tested on: UACC-62 melanoma
# HCT-15 colon = tested on: HCT-15 colon
# OVCAR-8 ovarian = tested on: OVCAR-8 ovarian
# IGROV1 ovarian = tested on: IGROV1 ovarian
# SF-539 CNS = tested on: SF-539 CNS
# M14 melanoma = tested on: M14 melanoma
# HT29 colon = tested on: HT29 colon
# MDA-MB-435 = tested on: MDA-MB-435
# OVCAR-4 ovarian = tested on: OVCAR-4 ovarian
# T-47D breast = tested on: T-47D breast
compound,measurement,setting,value
CN(C)c1ccc(-c2c(C#N)c(N)[nH]c(=S)c2C#N)cc1,TGI,SR leukemia,> 100 µM
same,TGI,OVCAR-3 ovarian,> 100 µM
same,TGI,UACC-257 melanoma,> 100 µM
same,TGI,CAKI-1 renal,> 100 µM
same,TGI,SN12C renal,> 100 µM
same,TGI,SNB-75 CNS,> 100 µM
same,TGI,MDA-MB-231 breast,> 100 µM
same,TGI,SNB-19 CNS,> 100 µM
same,TGI,K-562 leukemia,> 100 µM
same,TGI,UACC-62 melanoma,> 100 µM
same,TGI,HCT-15 colon,> 100 µM
same,TGI,OVCAR-8 ovarian,> 100 µM
same,TGI,IGROV1 ovarian,> 100 µM
same,TGI,SF-539 CNS,> 100 µM
same,TGI,M14 melanoma,> 100 µM
same,TGI,HT29 colon,> 100 µM
same,TGI,MDA-MB-435,> 100 µM
same,TGI,OVCAR-4 ovarian,> 100 µM
CSc1nc2ccccc2c(=O)n1/N=C1\C(=O)N(CN2CCCCC2)c2ccc(Cl)cc21,TGI,T-47D breast,54.8 µM
same,TGI,OVCAR-3 ovarian,> 100 µM
same,TGI,UACC-257 melanoma,54.2 µM
same,TGI,CAKI-1 renal,> 100 µM
same,TGI,SN12C renal,> 100 µM
same,TGI,SNB-75 CNS,58.4 µM
same,TGI,MDA-MB-231 breast,> 100 µM
same,TGI,SNB-19 CNS,> 100 µM
same,TGI,K-562 leukemia,> 100 µM
same,TGI,UACC-62 melanoma,> 100 µM
same,TGI,HCT-15 colon,> 100 µM
same,TGI,OVCAR-8 ovarian,> 100 µM
same,TGI,IGROV1 ovarian,75.1 µM
same,TGI,SF-539 CNS,> 100 µM
same,TGI,M14 melanoma,> 100 µM
same,TGI,HT29 colon,> 100 µM
same,TGI,MDA-MB-435,> 100 µM
same,TGI,OVCAR-4 ovarian,> 100 µM
COc1cc(Br)c(OC)c2c(OC)cc(C)cc12,TGI,T-47D breast,> 100 µM
same,TGI,SR leukemia,37.8 µM
same,TGI,OVCAR-3 ovarian,> 100 µM
same,TGI,UACC-257 melanoma,> 100 µM
same,TGI,SN12C renal,> 100 µM
same,TGI,SNB-75 CNS,> 100 µM
same,TGI,MDA-MB-231 breast,> 100 µM
same,TGI,SNB-19 CNS,> 100 µM
same,TGI,K-562 leukemia,> 100 µM
same,TGI,UACC-62 melanoma,> 100 µM
same,TGI,HCT-15 colon,> 100 µM
same,TGI,OVCAR-8 ovarian,> 100 µM
same,TGI,IGROV1 ovarian,> 100 µM
same,TGI,SF-539 CNS,> 100 µM
same,TGI,M14 melanoma,> 100 µM
same,TGI,HT29 colon,> 100 µM
same,TGI,MDA-MB-435,> 100 µM
CC(C)OP(=O)(OC(C)C)C(C(C)C)N(C)/C(N)=N\C1=NC(C(F)(F)F)(C(F)(F)F)N=C(C(C(F)(F)F)C(F)(F)F)O1 (centres undefined),TGI,T-47D breast,31.3 µM
same,TGI,SR leukemia,14.2 µM
same,TGI,OVCAR-3 ovarian,31.6 µM
same,TGI,UACC-257 melanoma,10.3 µM
same,TGI,CAKI-1 renal,11.2 µM
same,TGI,SN12C renal,10.5 µM
same,TGI,SNB-75 CNS,11.9 µM
same,TGI,MDA-MB-231 breast,4.33 µM
same,TGI,SNB-19 CNS,44.9 µM
same,TGI,K-562 leukemia,5.11 µM
same,TGI,UACC-62 melanoma,4.7 µM
same,TGI,OVCAR-8 ovarian,5.28 µM
same,TGI,IGROV1 ovarian,5.77 µM
same,TGI,SF-539 CNS,11.8 µM
same,TGI,M14 melanoma,4.23 µM
same,TGI,HT29 colon,6.98 µM
same,TGI,MDA-MB-435,3.78 µM
NC1CC(=O)c2cc(Cl)sc21 (centres undefined),TGI,T-47D breast,> 100 µM
same,TGI,OVCAR-3 ovarian,> 100 µM
same,TGI,UACC-257 melanoma,> 100 µM
same,TGI,CAKI-1 renal,> 100 µM
same,TGI,SN12C renal,> 100 µM
same,TGI,SNB-75 CNS,> 100 µM
same,TGI,MDA-MB-231 breast,> 100 µM
same,TGI,SNB-19 CNS,> 100 µM
same,TGI,K-562 leukemia,> 100 µM
same,TGI,UACC-62 melanoma,> 100 µM
same,TGI,HCT-15 colon,> 100 µM
same,TGI,OVCAR-8 ovarian,> 100 µM
same,TGI,IGROV1 ovarian,> 100 µM
same,TGI,SF-539 CNS,> 100 µM
same,TGI,M14 melanoma,> 100 µM
same,TGI,HT29 colon,> 100 µM
same,TGI,MDA-MB-435,> 100 µM
same,TGI,OVCAR-4 ovarian,> 100 µM
COC(=O)[C@H](Cc1ccccc1)NC(=O)NCCN(CCNC(=O)N[C@@H](Cc1ccccc1)C(=O)OC)C(=O)N[C@@H](Cc1ccccc1)C(=O)OC,TGI,T-47D breast,49.6 µM
same,TGI,OVCAR-3 ovarian,39.7 µM
same,TGI,UACC-257 melanoma,40.4 µM
same,TGI,CAKI-1 renal,> 63.6 µM
same,TGI,SNB-75 CNS,35.9 µM
same,TGI,MDA-MB-231 breast,46.5 µM
same,TGI,SNB-19 CNS,48.2 µM
same,TGI,K-562 leukemia,61 µM
same,TGI,UACC-62 melanoma,49.8 µM
same,TGI,HCT-15 colon,> 100 µM
same,TGI,OVCAR-8 ovarian,34.6 µM
same,TGI,SF-539 CNS,47.1 µM
same,TGI,M14 melanoma,45.7 µM
same,TGI,MDA-MB-435,45 µM
same,TGI,OVCAR-4 ovarian,30 µM
O=C(O)c1c[nH]c2c(Sc3ccccc3)nccc2c1=O,TGI,T-47D breast,> 100 µM
same,TGI,OVCAR-3 ovarian,> 100 µM
same,TGI,UACC-257 melanoma,> 100 µM
same,TGI,CAKI-1 renal,> 100 µM
same,TGI,SN12C renal,> 100 µM
same,TGI,SNB-75 CNS,> 100 µM
same,TGI,MDA-MB-231 breast,> 100 µM
same,TGI,SNB-19 CNS,> 100 µM
same,TGI,UACC-62 melanoma,> 100 µM
same,TGI,HCT-15 colon,> 100 µM
same,TGI,OVCAR-8 ovarian,> 100 µM
same,TGI,IGROV1 ovarian,> 100 µM
same,TGI,SF-539 CNS,> 100 µM
same,TGI,M14 melanoma,> 100 µM
same,TGI,HT29 colon,> 100 µM
same,TGI,MDA-MB-435,> 100 µM
same,TGI,OVCAR-4 ovarian,> 100 µM
Cn1nc(Cc2ccc(Cl)cc2)n(N)c1=O,TGI,T-47D breast,> 100 µM
same,TGI,UACC-257 melanoma,> 100 µM
same,TGI,CAKI-1 renal,> 100 µM
same,TGI,SN12C renal,> 100 µM
same,TGI,SNB-75 CNS,> 100 µM
same,TGI,MDA-MB-231 breast,> 100 µM
same,TGI,SNB-19 CNS,> 100 µM
same,TGI,K-562 leukemia,> 100 µM
same,TGI,UACC-62 melanoma,> 100 µM
same,TGI,HCT-15 colon,> 100 µM
same,TGI,OVCAR-8 ovarian,> 100 µM
same,TGI,IGROV1 ovarian,> 100 µM
same,TGI,SF-539 CNS,> 100 µM
same,TGI,HT29 colon,> 100 µM
same,TGI,MDA-MB-435,> 100 µM
Cn1c(O)c(C(=O)Nc2cccs2)c(=O)[nH]c1=S,TGI,OVCAR-3 ovarian,49.8 µM
same,TGI,UACC-257 melanoma,32.6 µM
same,TGI,CAKI-1 renal,47.8 µM
same,TGI,SN12C renal,74.6 µM
same,TGI,SNB-75 CNS,31.3 µM
same,TGI,SNB-19 CNS,79.6 µM
same,TGI,K-562 leukemia,> 100 µM
same,TGI,UACC-62 melanoma,27.2 µM
same,TGI,HCT-15 colon,43 µM
same,TGI,OVCAR-8 ovarian,66.2 µM
same,TGI,IGROV1 ovarian,52 µM
same,TGI,SF-539 CNS,30.3 µM
same,TGI,M14 melanoma,64.3 µM
same,TGI,HT29 colon,34 µM
same,TGI,OVCAR-4 ovarian,66.1 µM
CC1C2CC(CC(=O)N2)C1(C)C (centres undefined),TGI,T-47D breast,> 100 µM
same,TGI,OVCAR-3 ovarian,> 100 µM
same,TGI,UACC-257 melanoma,> 100 µM
same,TGI,CAKI-1 renal,> 100 µM
same,TGI,SN12C renal,> 100 µM
same,TGI,SNB-75 CNS,> 100 µM
same,TGI,MDA-MB-231 breast,> 100 µM
same,TGI,SNB-19 CNS,> 100 µM
same,TGI,K-562 leukemia,> 100 µM
same,TGI,UACC-62 melanoma,> 100 µM
same,TGI,OVCAR-8 ovarian,> 100 µM
same,TGI,IGROV1 ovarian,> 100 µM
same,TGI,SF-539 CNS,> 100 µM
same,TGI,M14 melanoma,> 100 µM
same,TGI,HT29 colon,> 100 µM
same,TGI,MDA-MB-435,> 100 µM
same,TGI,OVCAR-4 ovarian,> 100 µM
CC#COP(=O)(OCC)OCC,TGI,SR leukemia,> 100 µM
same,TGI,OVCAR-3 ovarian,> 100 µM
same,TGI,UACC-257 melanoma,> 100 µM
same,TGI,CAKI-1 renal,> 100 µM
same,TGI,SN12C renal,> 100 µM
same,TGI,SNB-19 CNS,> 100 µM
same,TGI,K-562 leukemia,> 100 µM
same,TGI,UACC-62 melanoma,> 100 µM
same,TGI,HCT-15 colon,> 100 µM
same,TGI,OVCAR-8 ovarian,> 100 µM
same,TGI,IGROV1 ovarian,> 100 µM
same,TGI,SF-539 CNS,> 100 µM
same,TGI,M14 melanoma,> 100 µM
same,TGI,HT29 colon,> 100 µM
same,TGI,OVCAR-4 ovarian,> 100 µM
CC(C)c1ccccc1SC1CC(=O)CC(Sc2ccccc2C(C)C)C12O[C@H](c1ccccc1)[C@@H](c1ccccc1)O2 (some centres undefined),TGI,T-47D breast,82.9 µM
same,TGI,OVCAR-3 ovarian,> 100 µM
same,TGI,UACC-257 melanoma,> 100 µM
same,TGI,CAKI-1 renal,62.5 µM
same,TGI,SN12C renal,47.9 µM
same,TGI,MDA-MB-231 breast,71.8 µM
same,TGI,SNB-19 CNS,> 100 µM
same,TGI,UACC-62 melanoma,96.4 µM
same,TGI,HCT-15 colon,> 100 µM
same,TGI,OVCAR-8 ovarian,> 100 µM
same,TGI,IGROV1 ovarian,> 100 µM
same,TGI,SF-539 CNS,> 100 µM
same,TGI,M14 melanoma,40.8 µM
same,TGI,HT29 colon,> 100 µM
same,TGI,MDA-MB-435,55.2 µM
same,TGI,OVCAR-4 ovarian,> 100 µM
C/C(CN1C(=O)c2ccccc2C1=O)=N\NS(=O)(=O)c1ccc(Br)cc1,TGI,OVCAR-3 ovarian,> 100 µM
same,TGI,UACC-257 melanoma,> 100 µM
same,TGI,CAKI-1 renal,> 100 µM
same,TGI,SN12C renal,> 100 µM
same,TGI,SNB-75 CNS,> 100 µM
same,TGI,SNB-19 CNS,> 100 µM
same,TGI,K-562 leukemia,> 100 µM
same,TGI,UACC-62 melanoma,> 100 µM
same,TGI,HCT-15 colon,> 100 µM
same,TGI,OVCAR-8 ovarian,> 100 µM
same,TGI,IGROV1 ovarian,> 100 µM
same,TGI,SF-539 CNS,> 100 µM
same,TGI,M14 melanoma,> 100 µM
same,TGI,HT29 colon,> 100 µM
same,TGI,OVCAR-4 ovarian,> 100 µM
COc1cc2c(cc1OC)-c1[nH]c3ccc(C#N)cc3c1CC(=O)N2,TGI,T-47D breast,> 100 µM
same,TGI,UACC-257 melanoma,> 100 µM
same,TGI,CAKI-1 renal,> 100 µM
same,TGI,SN12C renal,> 100 µM
same,TGI,SNB-75 CNS,> 100 µM
same,TGI,MDA-MB-231 breast,> 100 µM
same,TGI,SNB-19 CNS,> 100 µM
same,TGI,UACC-62 melanoma,> 100 µM
same,TGI,HCT-15 colon,> 100 µM
same,TGI,OVCAR-8 ovarian,> 100 µM
same,TGI,IGROV1 ovarian,> 100 µM
same,TGI,SF-539 CNS,> 100 µM
same,TGI,M14 melanoma,> 100 µM
same,TGI,HT29 colon,> 100 µM
same,TGI,MDA-MB-435,> 100 µM
same,TGI,OVCAR-4 ovarian,> 100 µM
